Reference: ChEMBL document CHEMBL5034010, “Novel Cephalosporin Conjugates Display Potent and Selective Inhibition of Imipenemase-Type Metallo-β-Lactamases” (J Med Chem, 2021)
≈ marks a conversion by molar mass, not a printed value. Calls of active or inactive are those of the source. The rule behind the calls is not given here.

Columns and labels:
[1] = Stability of the compound assessed as Klebsiella pneumoniae beta-lactamase IMP-28-mediated degradation by measuring appearance of vinyl protons release measured after 120 mins by NMR spectra; assay type: ADME; conditions: 2 h
Enterobacter cloacae [2] = assay: Inhibition of Metallo-beta-lactamase IMP-1 in Enterobacter cloacae clinical isolate assessed as MIC for meropenem antibacterial activity at 32 ug/ml (Rvb =16 ug/ml); conditions: dose 32.0 µg/ml
Enterobacter cloacae [3] = assay: Inhibition of Metallo-beta-lactamase IMP-1 in Enterobacter cloacae clinical isolate assessed as MIC for meropenem antibacterial activity at 64 ug/ml (Rvb =16 ug/ml); conditions: dose 64.0 µg/ml
Enterobacter cloacae [4] = assay: Inhibition of Metallo-beta-lactamase IMP-1 in Enterobacter cloacae clinical isolate assessed as MIC for meropenem antibacterial activity at 128 ug/ml (Rvb =16 ug/ml); conditions: dose 128.0 µg/ml
Escherichia coli [5] = assay: Inhibition of Metallo-beta-lactamase NDM-1 in Escherichia coli clinical isolate assessed as MIC for meropenem antibacterial activity at 32 ug/ml (reference value: 32 ug/ml); conditions: dose 32.0 µg/ml
Escherichia coli [6] = assay: Inhibition of Metallo-beta-lactamase NDM-1 in Escherichia coli clinical isolate assessed as MIC for meropenem antibacterial activity at 64 ug/ml (reference value: 32 ug/ml); conditions: dose 64.0 µg/ml
Escherichia coli [7] = assay: Inhibition of Metallo-beta-lactamase NDM-1 in Escherichia coli clinical isolate assessed as MIC for meropenem antibacterial activity at 128 ug/ml (reference value: 32 ug/ml); conditions: dose 128.0 µg/ml
Klebsiella pneumoniae [8] = assay: Inhibition of Metallo-beta-lactamase IMP-28 in Klebsiella pneumoniae clinical isolate assessed as MIC for meropenem antibacterial activity at 32 ug/ml (reference value: 2 ug/ml); conditions: dose 32.0 µg/ml
Klebsiella pneumoniae [9] = assay: Inhibition of Metallo-beta-lactamase IMP-28 in Klebsiella pneumoniae clinical isolate assessed as MIC for meropenem antibacterial activity at 64 ug/ml (reference value: 2 ug/ml); conditions: dose 64.0 µg/ml
Klebsiella pneumoniae [10] = assay: Inhibition of Metallo-beta-lactamase IMP-28 in Klebsiella pneumoniae clinical isolate assessed as MIC for meropenem antibacterial activity at 128 ug/ml (reference value: 2 ug/ml); conditions: dose 128.0 µg/ml
Escherichia coli [11] = assay: Inhibition of Metallo-beta-lactamase VIM-2 in Escherichia coli clinical isolate assessed as MIC for meropenem antibacterial activity at 32 ug/ml (reference value: 4 ug/ml); conditions: dose 32.0 µg/ml
Escherichia coli [12] = assay: Inhibition of Metallo-beta-lactamase VIM-2 in Escherichia coli clinical isolate assessed as MIC for meropenem antibacterial activity at 64 ug/ml (reference value: 4 ug/ml); conditions: dose 64.0 µg/ml
Escherichia coli [13] = assay: Inhibition of Metallo-beta-lactamase VIM-2 in Escherichia coli clinical isolate assessed as MIC for meropenem antibacterial activity at 128 ug/ml (reference value: 4 ug/ml); conditions: dose 128.0 µg/ml
Enterobacter cloacae [14] = assay: Antibacterial activity against beta-lactamase IMP1 producing Enterobacter cloacae clinical isolate measured upto 128 ug/ml; assay type: functional, organism-based
Klebsiella pneumoniae [15] = assay: Antibacterial activity against beta-lactamase IMP-28 producing Klebsiella pneumoniae clinical isolate measured upto 128 ug/ml; assay type: functional, organism-based
Escherichia coli [16] = assay: Antibacterial activity against beta-lactamase VIM2 producing Escherichia coli clinical isolate measured upto 128 ug/ml; assay type: functional, organism-based
[17] = Inhibition of Enterobacter cloacae IMP-1 using nitrocefin chromogenic substrate measured after 15 to 60 min at 25 degC by microplate reader
[18] = Inhibition of Klebsiella pneumoniae beta-lactamase IMP-28 using nitrocefin chromogenic substrate measured after 15 to 60 min at 25 degC by microplate reader
[19] = Inhibition of Escherichia coli beta-lactamase VIM-2 using nitrocefin chromogenic substrate measured after 15 to 60 min at 25 degC by microplate reader
Klebsiella pneumoniae [20] = assay: Substrate activity at Klebsiella pneumoniae beta-lactamase IMP-28 assessed as compound hydrolysis by measuring Km by Michaelis-Menten analysis
Klebsiella pneumoniae [21] = assay: Substrate activity at Klebsiella pneumoniae beta-lactamase IMP-28 assessed as compound hydrolysis by measuring Kcat by Michaelis-Menten analysis
Klebsiella pneumoniae [22] = assay: Substrate activity at Klebsiella pneumoniae beta-lactamase IMP-28 assessed as compound hydrolysis by measuring Kcat/Km by Michaelis-Menten analysis
Enterobacter cloacae [23] = assay: Inhibition of Metallo-beta-lactamase IMP-1 in Enterobacter cloacae clinical isolate assessed as fold reduction in meropenem MIC at 32 ug/ml; conditions: dose 32.0 µg/ml
Enterobacter cloacae [24] = assay: Inhibition of Metallo-beta-lactamase IMP-1 in Enterobacter cloacae clinical isolate assessed as fold reduction in meropenem MIC at 64 ug/ml; conditions: dose 64.0 µg/ml
Enterobacter cloacae [25] = assay: Inhibition of Metallo-beta-lactamase IMP-1 in Enterobacter cloacae clinical isolate assessed as fold reduction in meropenem MIC at 128 ug/ml; conditions: dose 128.0 µg/ml
Klebsiella pneumoniae [26] = assay: Inhibition of Metallo-beta-lactamase IMP-28 in Klebsiella pneumoniae clinical isolate assessed as fold reduction in meropenem MIC at 32 ug/ml; conditions: dose 32.0 µg/ml
Klebsiella pneumoniae [27] = assay: Inhibition of Metallo-beta-lactamase IMP-28 in Klebsiella pneumoniae clinical isolate assessed as fold reduction in meropenem MIC at 64 ug/ml; conditions: dose 64.0 µg/ml
Klebsiella pneumoniae [28] = assay: Inhibition of Metallo-beta-lactamase IMP-28 in Klebsiella pneumoniae clinical isolate assessed as fold reduction in meropenem MIC at 128 ug/ml; conditions: dose 128.0 µg/ml
Escherichia coli [29] = assay: Inhibition of Metallo-beta-lactamase VIM-2 in Escherichia coli clinical isolate assessed as fold reduction in meropenem MIC at 32 ug/ml; conditions: dose 32.0 µg/ml
Escherichia coli [30] = assay: Inhibition of Metallo-beta-lactamase VIM-2 in Escherichia coli clinical isolate assessed as fold reduction in meropenem MIC at 64 ug/ml; conditions: dose 64.0 µg/ml
Escherichia coli [31] = assay: Inhibition of Metallo-beta-lactamase VIM-2 in Escherichia coli clinical isolate assessed as fold reduction in meropenem MIC at 128 ug/ml; conditions: dose 128.0 µg/ml
Escherichia coli [32] = assay: Inhibition of Metallo-beta-lactamase NDM-1 in Escherichia coli clinical isolate assessed as fold reduction in meropenem MIC at 32 ug/ml; conditions: dose 32.0 µg/ml
Escherichia coli [33] = assay: Inhibition of Metallo-beta-lactamase NDM-1 in Escherichia coli clinical isolate assessed as fold reduction in meropenem MIC at 64 ug/ml; conditions: dose 64.0 µg/ml
Escherichia coli [34] = assay: Inhibition of Metallo-beta-lactamase NDM-1 in Escherichia coli clinical isolate assessed as fold reduction in meropenem MIC at 128 ug/ml; conditions: dose 128.0 µg/ml
Escherichia coli [35] = assay: Antibacterial activity against beta-lactamase NDM1 producing Escherichia coli clinical isolate measured upto 128 ug/ml; assay type: functional, organism-based
[36] = Inhibition of Escherichia coli beta-lactamase NDM-1 using nitrocefin chromogenic substrate measured after 15 to 60 min at 25 degC by microplate reader

CC(=O)OCC1=C(C(=O)O)N2C(=O)[C@@H](NC(=O)Cc3ccccc3)[C@H]2SC1 [CEFALORAM]
Stability [1]: Unstable

CC1=C(C(=O)O)N2C(=O)[C@@H](NC(=O)Cc3ccccc3)[C@H]2SC1
MIC (Enterobacter cloacae [2]): 16 µg/mL (≈ 48.1 µM) | MIC (Enterobacter cloacae [3]): 16 µg/mL (≈ 48.1 µM) | MIC (Enterobacter cloacae [4]): 16 µg/mL (≈ 48.1 µM) | MIC (Escherichia coli [5]): 16 µg/mL (≈ 48.1 µM) | MIC (Escherichia coli [6]): 16 µg/mL (≈ 48.1 µM) | MIC (Escherichia coli [7]): 16 µg/mL (≈ 48.1 µM) | MIC (Klebsiella pneumoniae [8]): 1 µg/mL (≈ 3.01 µM) | MIC (Klebsiella pneumoniae [9]): 0.5 µg/mL (≈ 1.5 µM) | MIC (Klebsiella pneumoniae [10]): 0.25 µg/mL (≈ 0.752 µM) | MIC (Escherichia coli [11]): 2 µg/mL (≈ 6.02 µM) | MIC (Escherichia coli [12]): 2 µg/mL (≈ 6.02 µM) | MIC (Escherichia coli [13]): 1 µg/mL (≈ 3.01 µM) | Activity (Enterobacter cloacae [14]): inactive | Activity (Klebsiella pneumoniae [15]): inactive | Activity (Escherichia coli [16]): inactive | IC50 [17]: > 100 µM | IC50 [18]: > 100 µM | IC50 [19]: 57 µM | Km (Klebsiella pneumoniae [20]): 392 µM | kcat (Klebsiella pneumoniae [21]): 23.3 s⁻¹ | kcat/Km (Klebsiella pneumoniae [22]): 0.059 µM⁻¹ s⁻¹ | fold change (FC) (Enterobacter cloacae [23]): 1 | fold change (FC) (Enterobacter cloacae [24]): 1 | fold change (FC) (Enterobacter cloacae [25]): 1 | fold change (FC) (Klebsiella pneumoniae [26]): 2 | fold change (FC) (Klebsiella pneumoniae [27]): 4 | fold change (FC) (Klebsiella pneumoniae [28]): 8 | fold change (FC) (Escherichia coli [29]): 2 | fold change (FC) (Escherichia coli [30]): 2 | fold change (FC) (Escherichia coli [31]): 4 | fold change (FC) (Escherichia coli [32]): 2 | fold change (FC) (Escherichia coli [33]): 2 | fold change (FC) (Escherichia coli [34]): 2 | Activity (Escherichia coli [35]): inactive

O=C(O)CSCC1=C(C(=O)O)N2C(=O)[C@@H](NC(=O)Cc3ccccc3)[C@H]2SC1
MIC (Enterobacter cloacae [2]): 8 µg/mL (≈ 18.9 µM) | MIC (Enterobacter cloacae [3]): 8 µg/mL (≈ 18.9 µM) | MIC (Enterobacter cloacae [4]): 4 µg/mL (≈ 9.47 µM) | MIC (Escherichia coli [5]): 16 µg/mL (≈ 37.9 µM) | MIC (Escherichia coli [6]): 16 µg/mL (≈ 37.9 µM) | MIC (Escherichia coli [7]): 8 µg/mL (≈ 18.9 µM) | MIC (Klebsiella pneumoniae [8]): 0.25 µg/mL (≈ 0.592 µM) | MIC (Klebsiella pneumoniae [9]): 0.25 µg/mL (≈ 0.592 µM) | MIC (Klebsiella pneumoniae [10]): 0.125 µg/mL (≈ 0.296 µM) | MIC (Escherichia coli [11]): 2 µg/mL (≈ 4.73 µM) | MIC (Escherichia coli [12]): 2 µg/mL (≈ 4.73 µM) | MIC (Escherichia coli [13]): 1 µg/mL (≈ 2.37 µM) | Activity (Enterobacter cloacae [14]): inactive | Activity (Klebsiella pneumoniae [15]): inactive | Activity (Escherichia coli [16]): inactive | IC50 [17]: > 100 µM | IC50 [18]: > 100 µM | IC50 [36]: 72 µM | IC50 [19]: 53 µM | Km (Klebsiella pneumoniae [20]): 219 µM | kcat (Klebsiella pneumoniae [21]): 37 s⁻¹ | kcat/Km (Klebsiella pneumoniae [22]): 0.169 µM⁻¹ s⁻¹ | fold change (FC) (Enterobacter cloacae [23]): 2 | fold change (FC) (Enterobacter cloacae [24]): 2 | fold change (FC) (Enterobacter cloacae [25]): 4 | fold change (FC) (Klebsiella pneumoniae [26]): 8 | fold change (FC) (Klebsiella pneumoniae [27]): 8 | fold change (FC) (Klebsiella pneumoniae [28]): 16 | fold change (FC) (Escherichia coli [29]): 2 | fold change (FC) (Escherichia coli [30]): 2 | fold change (FC) (Escherichia coli [31]): 4 | fold change (FC) (Escherichia coli [32]): 2 | fold change (FC) (Escherichia coli [33]): 2 | fold change (FC) (Escherichia coli [34]): 4 | Activity (Escherichia coli [35]): inactive
